Target: soluble, sperm-specific adenylate cyclase (sAC) (Homo sapiens, UniProt Q96PN6)
Experiment: sAC-Assay (HTRF cAMP detection)
Assay type: biochemical
Settings: read-out: IC50 (inhibition of the soluble adenylate cyclase)
From the text: In a suitable buffer system, the soluble, sperm-specific adenylate cyclase catalyzes the reaction of adenosine triphosphate (ATP) to cyclic adenosine monophosphate (cAMP) and pyrophosphate. Free cAMP that is generated in this way is then used in a competitive detection process, in which the binding of a europium kryptate (Eu[K])-labeled anti-cAMP antibody (anti cAMP-Eu[K]-AK) to a cAMP-molecule-labeled, modified allophycocyanine-1 molecule (cAMP-XL665) is prevented. In the absence of exogenic cAMP, after excitation at 335 nm, it results in a fluorescence resonance energy transfer (FRET) between the anti cAMP-Eu[K]-AK (FRET-donor) and the cAMP-XL665 molecule (FRET-acceptor). This process is quantified at different times (time-resolved) based on the emission of FRET-acceptor XL665 (665 nm and 620 nm). A signal drop (measured as a wave ratio; calculation formula: [(E665 nm/E620 nm)×10000]) can be attributed to the presence of cAMP and thus to the activity of sAC.
First, 1.5 μl of the test substance (in 30% DMSO), only 30% DMSO in the solvent controls, is introduced per recess in a 384-hole test plate (polystyrene; 384, NV). […]
After an additional incubation of 90 minutes at room temperature, the HTRF result is measured either on the Packard Discovery or with the RubiStar HTRF measuring device (Delay: 50 μs; Integration time: 400 μs).

Chain of soluble, sperm-specific adenylate cyclase (sAC) (Q96PN6 whole entry): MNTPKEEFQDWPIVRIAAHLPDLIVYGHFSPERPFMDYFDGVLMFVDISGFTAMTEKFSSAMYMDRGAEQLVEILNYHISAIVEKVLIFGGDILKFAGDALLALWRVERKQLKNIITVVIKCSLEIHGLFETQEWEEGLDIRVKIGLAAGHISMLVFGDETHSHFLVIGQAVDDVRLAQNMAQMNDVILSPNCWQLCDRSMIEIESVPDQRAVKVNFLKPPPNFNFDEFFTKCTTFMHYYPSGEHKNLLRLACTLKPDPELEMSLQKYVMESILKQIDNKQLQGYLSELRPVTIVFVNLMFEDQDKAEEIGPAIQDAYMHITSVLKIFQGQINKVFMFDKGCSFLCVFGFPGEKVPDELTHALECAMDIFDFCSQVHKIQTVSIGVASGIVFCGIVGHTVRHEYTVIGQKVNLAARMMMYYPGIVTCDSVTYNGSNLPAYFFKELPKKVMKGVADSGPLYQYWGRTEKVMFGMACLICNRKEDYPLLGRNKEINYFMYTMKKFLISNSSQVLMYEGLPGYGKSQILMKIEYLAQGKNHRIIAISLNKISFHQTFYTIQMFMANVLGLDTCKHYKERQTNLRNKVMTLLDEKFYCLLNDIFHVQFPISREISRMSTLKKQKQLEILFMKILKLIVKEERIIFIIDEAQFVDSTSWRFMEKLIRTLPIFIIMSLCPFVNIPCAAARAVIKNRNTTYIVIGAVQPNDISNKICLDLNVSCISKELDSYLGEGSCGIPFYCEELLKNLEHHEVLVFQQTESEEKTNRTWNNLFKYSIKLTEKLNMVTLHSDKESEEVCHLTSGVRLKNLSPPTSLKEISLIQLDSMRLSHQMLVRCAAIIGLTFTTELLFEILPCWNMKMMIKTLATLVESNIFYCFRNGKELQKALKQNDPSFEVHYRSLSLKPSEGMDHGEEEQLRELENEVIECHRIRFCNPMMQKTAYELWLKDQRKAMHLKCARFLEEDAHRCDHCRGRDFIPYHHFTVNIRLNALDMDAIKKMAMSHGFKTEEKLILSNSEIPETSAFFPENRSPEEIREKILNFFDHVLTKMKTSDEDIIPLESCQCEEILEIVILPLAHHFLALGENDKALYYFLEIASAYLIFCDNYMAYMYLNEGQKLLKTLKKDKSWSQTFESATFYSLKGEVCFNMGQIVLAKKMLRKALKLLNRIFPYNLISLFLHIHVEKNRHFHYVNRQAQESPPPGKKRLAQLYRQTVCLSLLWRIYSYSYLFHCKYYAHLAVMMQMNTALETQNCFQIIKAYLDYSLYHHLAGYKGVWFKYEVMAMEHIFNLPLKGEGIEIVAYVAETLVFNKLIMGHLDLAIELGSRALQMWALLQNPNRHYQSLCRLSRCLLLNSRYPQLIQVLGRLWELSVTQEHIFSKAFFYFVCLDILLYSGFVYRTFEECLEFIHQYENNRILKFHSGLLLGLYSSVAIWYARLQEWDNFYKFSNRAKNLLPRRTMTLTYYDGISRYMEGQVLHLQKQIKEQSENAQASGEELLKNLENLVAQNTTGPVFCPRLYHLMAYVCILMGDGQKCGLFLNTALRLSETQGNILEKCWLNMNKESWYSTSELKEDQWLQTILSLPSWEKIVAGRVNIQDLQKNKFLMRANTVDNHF

Row | Structure (SMILES) | IC50
1 | CC(C)(C)c1ccc(NS(=O)(=O)c2ccc3[nH]c(C(=O)NC4CCOCC4)c(-c4ccccc4)c3c2)cc1 | 3000 nM
2 | CC(O)CNC(=O)c1[nH]c2ccc(S(=O)(=O)Nc3ccc(C(C)(C)C)cc3)cc2c1-c1ccccc1 (racemic) | 1600 nM
